Results: patent publication US10456405B2, “Nitric oxide-releasing prodrug molecule of substituted quinazolines” (ZHEJIANG HUAHAI PHARMACEUTICAL CO., LTD, priority 2015, dated 2019)

Columns and labels:
db/db mice = test: Serum NO and heart eNOS in db/db mice after oral gavage; format: in vivo; settings: blank = 100, oral gavage 150 mg/kg (isosorbide mononitrate 5 mg/kg), 1 h after administration (H101: 2 h)
Method in brief: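 Male 8-week-old BKS db/db mice received a single oral gavage dose of 150 mg/kg (isosorbide mononitrate 5 mg/kg) in DMSO/PEG400/10% HP-β-CD 5:67.5:27.5, n=4 per group. Sacrifice at 1 h (H101 at 2 h). Serum total NO by kit; heart eNOS taken as NOS activity difference ± L-NAME.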

[1] = Plasma stability in vitro, mouse plasma; settings: for Content of Tested Substance (n = 2): CD-1 mice plasma, 2 μM, 37° C., in % (unit assumed)
Description: (§1) Experimental method: The tested compounds (2 μM) were added into mouse or human plasma, and incubated at 37° C. Samples were taken at 0, 10, 30, 60 and 120 min respectively. The reaction was stopped by adding a stop agent. The mixture was sufficient shaken, and centrifuged at 4000 rpm for 10 min at 4° C. The supernatant was taken. The concentrations of the tested compounds and their metabolite (H130) in the supernatant were measured by LC-MS/MS.

[2] = Plasma stability in vitro, human plasma; settings: for Content of Tested Substance (n = 2): human plasma, 2 μM, 37° C., in % (unit assumed)
Description: as §1

| Molecule | Heart eNOS (db/db mice) | Serum NO (db/db mice) | Content of Tested Substance (n = 2) ([1]; 0 min) | Content of Tested Substance (n = 2) ([1]; 10 min) | Content of Tested Substance (n = 2) ([1]; 30 min) | Content of Tested Substance (n = 2) ([1]; 60 min) | Content of Tested Substance (n = 2) ([1]; 120 min) | stability in mouse plasma ([1]; within 2 h) | Content of Tested Substance (n = 2) ([2]; 0 min) | Content of Tested Substance (n = 2) ([2]; 10 min) | Content of Tested Substance (n = 2) ([2]; 30 min) | Content of Tested Substance (n = 2) ([2]; 60 min) | Content of Tested Substance (n = 2) ([2]; 120 min) | stability in human plasma ([2]; within 2 h) |
| --- | --- | --- | --- | --- | --- | --- | --- | --- | --- | --- | --- | --- | --- | --- |
| 2-[4-(5,7-dimethoxy-4-oxo-3,4-dihydro-quinazolin-2-yl)-2,6-dimethyl-phenoxy]-ethyl 4-(2-oxo-3-nitroxymethyl-1,2,5-oxadiazol-3-methyl)oxy-4-oxo-butyrate [Compound H111] | 165% | 154% | – | – | – | – | – | – | – | – | – | – | – | – |
| COc1cc(OC)c2c(=O)[nH]c(-c3cc(C)c(OCCO[N+](=O)[O-])c(C)c3)nc2c1 [Compound H101, 2-(4-(2-nitrooxy-ethoxy)-3,5-dimethylphenyl)-5,7-dimethoxyquinazolin-4(3H)-one] | 162% | 142% | 100.0 | 101.4 | 94.8 | 99.7 | 99.1 | good stability | 100.0 | 99.5 | 96.4 | 97.5 | 95.8 | good stability |
| COc1cc(OC)c2c(=O)[nH]c(-c3cc(C)c(OCCOC(=O)OC4COC5C(O[N+](=O)[O-])COC45)c(C)c3)nc2c1 (stereo not drawn) [Compound H119, 2-[4-(5,7-dimethoxy-4-oxo-3,4-dihydro-quinazolin-2-yl)-2,6-dimethyl-phenoxy]-ethyl (6-nitroxy-hexahydrofuro[3,2-b]furan-3-yl)-carbonate] | 156% | 152% | – | – | – | – | – | – | – | – | – | – | – | – |
